Among the data in PubChem BioAssay (NCI) are TGI values, retold here.

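Five compound concentrations were applied to cells in 96-well plates for 48 hours; endpoints were derived by simple linear interpolation of the resulting dose-response curve. TGI: total growth inhibition.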

Some test systems named below: HOP-62 NSCLC; EKVX NSCLC; MOLT-4 leukemia; SK-OV-3 ovarian; U251 CNS; UACC-257 melanoma; SN12C renal; TK-10 renal; CAKI-1 renal; HCT-116 colon; OVCAR-3 ovarian; LOX IMVI melanoma; CCRF-CEM leukemia; NCI/ADR-RES ovarian; MDA-MB-231 breast; SR leukemia; MCF7 breast.
What all share (experiment): NCI anticancer screen, dose series, 48 h

`N#CCCN(c1ccc(/C=C2\N=C(Cc3ccccc3)OC2=O)cc1)S(=O)(=O)c1ccccc1`: the TGI with HOP-62 NSCLC, in the experiment on EKVX NSCLC, in the experiment with MOLT-4 leukemia, with SK-OV-3 ovarian, with U251 CNS and with UACC-257 melanoma was over 100 µM in each case. The TGI in the experiment with SN12C renal, in the experiment on TK-10 renal, with CAKI-1 renal, with HCT-116 colon, in the experiment on OVCAR-3 ovarian and in the experiment on LOX IMVI melanoma was over 100 µM each time. This compound also gave a TGI in the experiment with CCRF-CEM leukemia of over 100 µM.

For `CN(C)CCC(O)(c1ccccc1)C(O)(CCN(C)C)c1ccccc1` (centres undefined), the TGI with HOP-62 NSCLC was over 100 µM; with EKVX NSCLC, over 100 µM; in the experiment on MOLT-4 leukemia, over 100 µM; in the experiment on SK-OV-3 ovarian, over 100 µM; in the experiment with U251 CNS it was over 100 µM; in the experiment with UACC-257 melanoma it was 56.7 µM. For the same compound, the TGI in the experiment with SN12C renal, in the experiment with TK-10 renal, with CAKI-1 renal, in the experiment with OVCAR-3 ovarian and in the experiment with CCRF-CEM leukemia was over 100 µM throughout.

`N#Cc1c2c(c(Nc3cccc(C(F)(F)F)c3)n3c1nc1ccccc13)CCC2`: the TGI in the experiment on HOP-62 NSCLC, in the experiment with EKVX NSCLC, with MOLT-4 leukemia, in the experiment on SK-OV-3 ovarian, in the experiment on U251 CNS and in the experiment with NCI/ADR-RES ovarian was over 100 µM throughout. The TGI in the experiment with MDA-MB-231 breast, with UACC-257 melanoma, with SN12C renal, in the experiment with TK-10 renal, with CAKI-1 renal and with HCT-116 colon was over 100 µM throughout. Further, the TGI in the experiment on OVCAR-3 ovarian and in the experiment on LOX IMVI melanoma was over 100 µM each time.

In the case of `CC(C)CC[C@H](O)[C@@H](C)[C@H]1[C@@H](OC2OC(C)C(O)C(O)C2O)C[C@H]2[C@@H]3CC=C4C[C@@H](O)CC[C@]4(C)[C@H]3[C@@H](O)C[C@]12C` (some centres undefined), the TGI with HOP-62 NSCLC was over 68.7 µM; with EKVX NSCLC, over 100 µM; in the experiment with MOLT-4 leukemia it was 0.508 µM; in the experiment with SK-OV-3 ovarian, over 100 µM; with U251 CNS it was over 100 µM; in the experiment on NCI/ADR-RES ovarian, over 100 µM. The TGI is over 100 µM in the experiment with MDA-MB-231 breast; 2.91 µM in the experiment with UACC-257 melanoma; over 100 µM with SN12C renal; over 100 µM with TK-10 renal; over 64 µM in the experiment with CAKI-1 renal; over 100 µM in the experiment on HCT-116 colon. Also, the TGI in the experiment on OVCAR-3 ovarian and with LOX IMVI melanoma was over 100 µM in each case.

Consider `CCOc1ccc(NC(=O)C(=O)NO)cc1`, for which the TGI with HOP-62 NSCLC, in the experiment on EKVX NSCLC, with MOLT-4 leukemia, in the experiment on SR leukemia, in the experiment on SK-OV-3 ovarian and in the experiment with U251 CNS was over 100 µM in each case. For the same compound, the TGI in the experiment with UACC-257 melanoma, in the experiment with SN12C renal, in the experiment with TK-10 renal, with CAKI-1 renal, in the experiment with HCT-116 colon and in the experiment on OVCAR-3 ovarian was over 100 µM each time. Further, the TGI in the experiment on LOX IMVI melanoma and in the experiment with CCRF-CEM leukemia was over 100 µM in each case.

On to `CCOC(=O)[C@]12C(=C(c3ccccc3)O[C@H]3C=CCC[C@H]31)C(=O)C(=O)N2c1ccccc1`, for which the TGI in the experiment with HOP-62 NSCLC was over 100 µM; in the experiment with MOLT-4 leukemia, 61.3 µM; in the experiment on SR leukemia, 46.8 µM; with MCF7 breast, over 100 µM; in the experiment on SK-OV-3 ovarian, over 100 µM; in the experiment with U251 CNS it was 38.6 µM. Further, the TGI with NCI/ADR-RES ovarian, in the experiment on MDA-MB-231 breast, in the experiment on SN12C renal, in the experiment with TK-10 renal, in the experiment on CAKI-1 renal and in the experiment with HCT-116 colon was over 100 µM in each case. In addition, in the experiment on OVCAR-3 ovarian, the TGI was over 100 µM.

For the compound `COc1ccccc1/C=C(\C#N)C(=O)c1ccccc1`, the TGI with HOP-62 NSCLC, in the experiment with EKVX NSCLC, in the experiment on MOLT-4 leukemia, in the experiment on SR leukemia, in the experiment with SK-OV-3 ovarian and in the experiment with U251 CNS was over 100 µM in each case. Moreover, the TGI in the experiment on UACC-257 melanoma, in the experiment with SN12C renal, with CAKI-1 renal, in the experiment with HCT-116 colon, in the experiment with OVCAR-3 ovarian and in the experiment with LOX IMVI melanoma was over 100 µM each time. The same compound yielded a TGI in the experiment on CCRF-CEM leukemia of over 100 µM.

On to `CCOc1ccc(NC(=O)C2=C(C)NC(C)=C(C(=O)Nc3ccc(OCC)cc3)C2c2ccc(O)c(OC)c2)cc1`, for which the TGI with HOP-62 NSCLC is 92.9 µM; with EKVX NSCLC, over 100 µM; with MOLT-4 leukemia, over 100 µM; with SK-OV-3 ovarian, over 100 µM; with U251 CNS, over 100 µM; in the experiment on UACC-257 melanoma, over 100 µM. The TGI in the experiment on SN12C renal, in the experiment on TK-10 renal, with CAKI-1 renal, with OVCAR-3 ovarian, in the experiment on LOX IMVI melanoma and in the experiment with CCRF-CEM leukemia was over 100 µM each time.

For `Nc1nc(NCCO)c(N=O)c(=O)[nH]1`, the TGI in the experiment with HOP-62 NSCLC, with EKVX NSCLC, with SK-OV-3 ovarian, with U251 CNS, in the experiment on UACC-257 melanoma and in the experiment with SN12C renal was over 100 µM in each case. Moreover, the TGI in the experiment on TK-10 renal, in the experiment on CAKI-1 renal, in the experiment on HCT-116 colon, in the experiment on OVCAR-3 ovarian, in the experiment on LOX IMVI melanoma and in the experiment with CCRF-CEM leukemia was over 100 µM each time.

As to `O=C(CC(=O)Nc1cccc(Cl)c1)NNCC(=O)Nc1nnc(-c2ccccc2)s1`, the TGI is over 100 µM in the experiment with HOP-62 NSCLC; over 100 µM in the experiment with EKVX NSCLC; over 100 µM in the experiment on MOLT-4 leukemia; over 100 µM with SR leukemia; 77.3 µM in the experiment on SK-OV-3 ovarian; over 100 µM in the experiment with U251 CNS. Further, the TGI in the experiment on UACC-257 melanoma, in the experiment with SN12C renal, in the experiment on TK-10 renal, in the experiment with CAKI-1 renal, with HCT-116 colon and with OVCAR-3 ovarian was over 100 µM each time. The same compound yielded a TGI with LOX IMVI melanoma of over 100 µM.
